Data reported in US20120107903A1 (priority 2010, published 2012).

Tests used:
[1] = target: Burkholderia cepacia KS1 glucose dehydrogenase (α-subunit SEQ ID NO:3), variant QYY, 326Gln+365Tyr+472Tyr (Burkholderia cepacia, UniProt Q8GQE7, A472Y/S326Q/S365Y); type: biochemical; details: pH 7
[2] = target: Burkholderia cepacia KS1 glucose dehydrogenase (α-subunit SEQ ID NO:3), variant QYA (QY), 326Gln+365Tyr (Burkholderia cepacia, UniProt Q8GQE7, S326Q/S365Y); type: biochemical; details: pH 7
[3] = target: Burkholderia cepacia KS1 glucose dehydrogenase (α-subunit SEQ ID NO:3), variant QYR, 326Gln+365Tyr+472Arg (Burkholderia cepacia, UniProt Q8GQE7, A472R/S326Q/S365Y); type: biochemical; details: pH 7
[4] = target: Ralstonia pickettii 12D FAD dependent oxidoreductase (SEQ ID NO:9), variant QYY, S327Q/S366Y/A473Y (Ralstonia pickettii, UniProt A0ABM9ITV6, A473Y/S327Q/S366Y); type: biochemical
[5] = target: Burkholderia thailandensis TXDOH hypothetical protein BthaT_07876 (SEQ ID NO:8), variant QYY, S324Q/S363Y/A470Y (Burkholderia thailandensis, UniProt Q2T5D8, A470Y/S324Q/S363Y)
[6] = target: Ralstonia solanacearum IPO1609 transmembrane dehydrogenase, wild type, SEQ ID NO:10 (Ralstonia solanacearum, UniProt A0ABF7REW7)
[7] = target: Burkholderia cenocepacia J2315 putative oxidoreductase (SEQ ID NO:7), variant QYY, S326Q/S365Y/A472Y (Burkholderia cenocepacia, UniProt B4ELB3, A472Y/S326Q/S365Y); type: biochemical; details: read-out: Km (Mal)
[8] = target: Ralstonia pickettii 12D FAD dependent oxidoreductase, wild type, SEQ ID NO:9 (Ralstonia pickettii, UniProt A0ABM9ITV6)
[9] = test system: OC[C@H]1OC(O)[C@H](O)[C@@H](O)[C@@H]1O; test: cells, lysate or membranes named
[10] = test system: OC[C@H]1O[C@H](O[C@H]2[C@H](O)[C@@H](O)C(O)O[C@@H]2CO)[C@H](O)[C@@H](O)[C@@H]1O; test: cells, lysate or membranes named; details: pH 7.0

Q: Which “Vmax (Glc.)” value [1] does the source give for `OC[C@H]1OC(O)[C@H](O)[C@@H](O)[C@@H]1O` (some centres unmarked) [Glucose, glucose] here?
A: Vmax (Glc.) = 131.6 U/mg protein

Q: What about the “Vmax (Glc.)” value [2] of the same compound?
A: Vmax (Glc.) = 149.3 U/mg protein

Q: And the “Vmax (Glc.)” value [3]?
A: Vmax (Glc.) = 93.5 U/mg protein

Q: What about the “Vmax (Glc)” value [4] of the same compound?
A: 1.62 U/mL

Q: What about the “Vmax (Glc)” value [5] of the same compound?
A: 48.8 U/mL

Q: And the “Vmax (Glc)” value [6]?
A: 0.14 U/mL

Q: How did the Km [7] turn out when `OC[C@H]1O[C@H](O[C@H]2[C@H](O)[C@@H](O)C(O)O[C@@H]2CO)[C@H](O)[C@@H](O)[C@@H]1O` (some centres unmarked) [Mal, maltose] was run?
A: > 100000 µM

Q: And the “Vmax (Mal)” value [8]?
A: 0.94 U/mL

Q: What about the “Vmax (Mal)” value [6] of the same compound?
A: 0.14 U/mL

Q: With (Burkholderia cenocepacia J2315) as the compound, how does the Km ([9]; pH 7.0) read?
A: 110 µM

Q: What about the Vmax ([9]; pH 7.0) of the same compound?
A: 2.05 U/mL

Q: What about the Km [10] of the same compound?
A: 1300 µM

Q: What about the Vmax [10] of the same compound?
A: 1.87 U/mL

Q: With (Burkholderia cepacia) as the compound, how does the Km ([9]; pH 7.5) read?
A: 1350 µM

Q: And the Vmax ([9]; pH 7.5)?
A: 100 µmol/min/mg

Q: With (Ralstonia pickettii) as the compound, how does the Km [10] read?
A: 2020 µM

Q: How did the Km [10] turn out when (Ralstonia solanacearum IPO1609) was run?
A: 2640 µM
